Test results: patent publication US7994331B2, “Heterocycle-substituted benzimidazole derivative” (MSD K.K., priority 2005, dated 2011)

Molecular target: T1, recombinant human liver GK (FLAG fusion protein) (Homo sapiens, UniProt P35557)
T1 construct: made in house; host or cells: E. coli
T1 sequence (P35557 1-466 isoform P35557-2): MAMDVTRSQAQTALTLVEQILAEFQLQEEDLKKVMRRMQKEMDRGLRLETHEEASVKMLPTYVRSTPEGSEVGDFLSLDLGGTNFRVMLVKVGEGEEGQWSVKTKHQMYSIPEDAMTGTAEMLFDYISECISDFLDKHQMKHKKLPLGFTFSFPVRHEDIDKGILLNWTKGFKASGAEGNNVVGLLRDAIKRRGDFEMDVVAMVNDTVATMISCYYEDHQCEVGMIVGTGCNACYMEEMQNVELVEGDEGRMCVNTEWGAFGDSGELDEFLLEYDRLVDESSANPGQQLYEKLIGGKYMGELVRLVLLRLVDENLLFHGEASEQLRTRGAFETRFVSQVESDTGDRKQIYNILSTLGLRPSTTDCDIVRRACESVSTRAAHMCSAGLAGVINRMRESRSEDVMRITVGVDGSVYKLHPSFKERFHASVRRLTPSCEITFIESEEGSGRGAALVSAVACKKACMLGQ
Assay: Glucokinase (GK) activation assay, G6PDH-coupled Thio-NADH absorbance at 405 nm
Format: biochemical
Conditions: final glucose concentration 2.5 mM, 30° C.; for EC50: GK activation; for Emax: OD level of DMSO control set as 100%
Text: The excellent glucokinase-activating effect of the compounds of formula (I) may be determined by a method described in references (for example, Diabetes, Vol. 45, pp. 1671-1677, 1996), or in accordance with it.
The glucokinase activity may be determined not by directly measuring glucose-6-phosphate but by measuring the level of Thio-NADH, which is produced when a reporter enzyme, glucose-6-phosphate dehydrogenase produces phosphogluconolactone from glucose-6-phosphate, and based on the level, the level of glucokinase activation may be determined.
In this assay, used was a recombinant human liver GK, which was expressed by E. coli as a FLAG fusion protein therein and was purified by ANTIFLAG M2 AFFINITY GEL (Sigma).
Using a flat-bottomed 96-well plate, the assay was carried out at 30° C. 69 μl of an assay buffer (25 mM Hepes Buffer/pH=7.2, 2 mM MgCl2, 1 mM ATP, 0.5 mM TNAD, 1 mM dithiothreitol) was put into the plate, and 1 μl of a DMSO solution of the compound or DMSO alone as a control was added thereto. Next, 20 μl of an enzyme mixture (FLAG-GK, 20 U/ml G6PDH) cooled in ice was added to it, and 10 μl of a substrate, 25 mM glucose was added to it, and the reaction was initiated (final glucose concentration=2.5 mM).
After the start of the reaction, the increase in the absorbance at 405 nm was measured for 12 minutes at intervals of 30 seconds, and the increase for the first 5 minutes was used for evaluating the compound tested. FLAG-GK was added so that the absorbance increase after 5 minutes in the presence of 1% DMSO could be from 0.04 to 0.06.
The OD level of the DMSO control was set as 100%; and the OD level of the test compound at different concentrations was determined. From the OD level at each concentration, Emax (%) and EC50 (μM) were computed and used as the index of the GK-activating potency of the compound.

Row | SMILES | EC50 [nM] | Emax [%]
1 | Cc1nc(-c2ccc(Oc3cc4[nH]c(-c5ccccn5)nc4cc3C3CCCO3)cn2)no1 (centres unmarked) [Example 17, 5-(tetrahydrofuran-2-yl)-6-(6-(5-methyl-(1,2,4)oxadiazol-3-yl)-pyridin-3-yloxy)-2-pyridin-2-yl-1H-benzimidazole] | 1400 | –
2 | CCS(=O)(=O)c1ccc(Oc2cc3[nH]c(-c4cnccn4)nc3cc2C2CCC(=O)O2)cc1 (centres unmarked) [Example 23, 5-(6-(4-(ethylsulfonyl)phenoxy)-2-pyrazin-2-yl-1H-benzimidazol-5-yl)dihydrofuran-2(3H)-one] | 1420 | –
3 | CCS(=O)(=O)c1ccc(Oc2cc3[nH]c(-c4ccccn4)nc3cc2C2OCCO2)cc1 [Example 1, 5-(1,3-dioxolan-2-yl)-6-(4-(ethylsulfonyl)phenoxy)-2-pyridin-2-yl-1H-benzimidazole] | 1180 | 923

Second part, the molecule after the results:

Row | EC50 [nM] | Emax [%] | SMILES
4 | 880 | 978 | CCS(=O)(=O)c1ccc(Oc2cc3[nH]c(-c4ccccn4)nc3cc2C2CCOC2=O)cc1 (centres unmarked) [Example 36, 3-(6-(4-(ethylsulfonyl)phenoxy)-2-pyridin-2-yl-1H-benzimidazol-5-yl)dihydrofuran-2(3H)-one]
5 | 600 | – | CCS(=O)(=O)c1ccc(Oc2cc3[nH]c(-c4ccccn4)nc3cc2C2CCCS2)cc1 (centres unmarked) [Example 29-1, 5-(tetrahydro-2-thienyl)-6-(4-(ethylsulfonyl)phenoxy)-2-pyridin-2-yl-1H-benzimidazole]
6 | 1580 | – | CCS(=O)(=O)c1ccc(Oc2cc3[nH]c(-c4ccccn4)nc3cc2C2OC(=O)N(C)C2=O)cc1 (centres unmarked) [Example 31, 5-(6-(4-(ethylsulfonyl)phenoxy)-2-pyridin-2-yl-1H-benzimidazol-5-yl)-3-methyl-1,3-oxazolidine-2,4-dione]
